Measurements as given in PMC6273231 (Molecules, 2016).

biological target: influenza virus neuraminidase (NA) (Influenza A virus, UniProt Q6DPL2); settings: enzyme inhibition assay in vitro
Sequence (Q6DPL2 whole entry, looked up): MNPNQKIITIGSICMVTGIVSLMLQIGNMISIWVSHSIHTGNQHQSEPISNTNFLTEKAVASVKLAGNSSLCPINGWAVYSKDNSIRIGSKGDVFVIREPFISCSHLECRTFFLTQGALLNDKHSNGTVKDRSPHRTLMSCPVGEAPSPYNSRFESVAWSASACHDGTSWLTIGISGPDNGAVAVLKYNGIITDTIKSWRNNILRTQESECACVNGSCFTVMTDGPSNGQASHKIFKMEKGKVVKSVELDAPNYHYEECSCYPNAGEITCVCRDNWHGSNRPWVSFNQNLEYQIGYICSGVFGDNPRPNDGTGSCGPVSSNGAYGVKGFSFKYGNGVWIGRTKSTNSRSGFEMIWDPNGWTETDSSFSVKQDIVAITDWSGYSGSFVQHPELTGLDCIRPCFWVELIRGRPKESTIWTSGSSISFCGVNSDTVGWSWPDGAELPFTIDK

SMILES	NA inhibitory activity compared with the positive control Oseltamivir acid (in words)
C[C@@]12C[C@@]3(O)O[C@@H](O1)[C@]1(COC(=O)c4ccccc4)[C@H]3C[C@@]12O[C@@H]1O[C@H](CO)[C@@H](O)[C@H](O)[C@H]1O [Paeoniflorin]	stronger activity against NA than Oseltamivir acid
O=C(OC[C@H]1O[C@@H](OC(=O)c2cc(O)c(O)c(O)c2)[C@H](OC(=O)c2cc(O)c(O)c(O)c2)[C@@H](OC(=O)c2cc(O)c(O)c(O)c2)[C@@H]1OC(=O)c1cc(O)c(O)c(O)c1)c1cc(O)c(O)c(O)c1 [pentagalloylglucose, Pentagalloyl glucose]	stronger activity against NA than Oseltamivir acid
C[C@@]12C[C@@]3(O)O[C@@H](O1)[C@]1(COC(=O)c4ccccc4)[C@H]3C[C@@]12O[C@@H]1O[C@H](COC(=O)c2ccccc2)[C@@H](O)[C@H](O)[C@H]1O [Benzoylpaeoniflorin]	stronger activity against NA than Oseltamivir acid
C[C@]12C[C@@H](O)[C@@H]3C[C@@]1(O[C@@H]1O[C@H](CO)[C@@H](O)[C@H](O)[C@H]1O)[C@]3(COC(=O)c1ccccc1)C(=O)O2 [Albiflorin]	stronger activity against NA than Oseltamivir acid
